Data from patent US20230085307A1, “PYRIDAZINONE COMPOUND AND HERBICIDE” (NISSAN CHEMICAL CORPORATION, priority 2019, published 2023).

Legend:
[1] = tested on: barnyard grass; assay: Test Example 3: herbicidal effect by foliage application, Wagner pot (Table 18, symbol H); format: in vivo, barnyard grass (Echinochloa crus-galli); conditions: 320 g/ha
Method in brief: (§1)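 Plants were sown in alluvial soil held under 0.1–0.5 cm standing water and grown 14 days in a greenhouse at 25–30 °C. An emulsifiable formulation, water-diluted to the set dose, was then sprayed onto the foliage, and effects were scored three weeks later using previously defined criteria.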

[2] = tested on: Chinese sprangletop; assay: Test Example 3: herbicidal effect by foliage application, Wagner pot (Table 18, symbol D); format: in vivo, chinese sprangletop (Leptochloa chinensis); conditions: 320 g/ha
Method in brief: as §1

[3] = tested on: rice flat sedge; assay: Test Example 3: herbicidal effect by foliage application, Wagner pot (Table 18, symbol E); format: in vivo, rice flat sedge (Cyperus iria); conditions: 320 g/ha
Method in brief: as §1

[4] = tested on: wild oat; assay: Test Example 4: herbicidal effect by soil treatment (Table 19, symbol I); format: in vivo, wild oat (Avena fatua); conditions: AAH 320 g/ha
Method in brief: (§2)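 Applied as a water-diluted emulsion, the compound was sprayed onto soil covering newly sown seeds. Evaluation came three weeks after application, in a greenhouse held at 25° C. to 30° C.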

[5] = tested on: blackgrass; assay: Test Example 4: herbicidal effect by soil treatment (Table 19, symbol J); format: in vivo, blackgrass (Alopecurus myosuroides); conditions: AAH 320 g/ha
Method in brief: as §2

[6] = tested on: Italian ryegrass; assay: Test Example 4: herbicidal effect by soil treatment (Table 19, symbol K); format: in vivo, Italian ryegrass (Lolium multiflorum); conditions: AAH 320 g/ha
Method in brief: as §2

[7] = tested on: windgrass; assay: Test Example 4: herbicidal effect by soil treatment (Table 19, symbol L); format: in vivo, windgrass (Apera spica-venti); conditions: AAH 320 g/ha
Method in brief: as §2

[8] = tested on: chickweed; assay: Test Example 4: herbicidal effect by soil treatment (Table 19, symbol P); format: in vivo, common chickweed (Stellaria media); conditions: AAH 320 g/ha
Method in brief: as §2

[9] = tested on: persian speedwell; assay: Test Example 4: herbicidal effect by soil treatment (Table 19, symbol R); format: in vivo, Persian speedwell (Veronica persica); conditions: AAH 320 g/ha
Method in brief: as §2

[10] = tested on: southern crabgrass; assay: Test Example 5: herbicidal effect by foliage application, plastic box (Table 20, symbol F); format: in vivo, southern crabgrass (Digitaria ciliaris); conditions: foliage application, 320 g/ha, 3 weeks after application
Method in brief: (§3)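 Sow seeds spot-wise in sterilized diluvial soil; cover with ~1.5 cm soil. Grow 14 days in greenhouse, 25° C. to 30° C. Spray foliage with emulsion diluted to predetermined amount. Rate effect after 3 weeks.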

[11] = tested on: green foxtail; assay: Test Example 5: herbicidal effect by foliage application, plastic box (Table 20, symbol G); format: in vivo, green foxtail (Setaria viridis); conditions: foliage application, 320 g/ha, 3 weeks after application
Method in brief: as §3

[12] = tested on: barnyard grass; assay: Test Example 5: herbicidal effect by foliage application, plastic box (Table 20, symbol H); format: in vivo, barnyard grass (Echinochloa crus-galli); conditions: foliage application, 320 g/ha, 3 weeks after application
Method in brief: as §3

[13] = tested on: wild oat; assay: Test Example 5: herbicidal effect by foliage application, plastic box (Table 20, symbol I); format: in vivo, wild oat (Avena fatua); conditions: foliage application, 320 g/ha, 3 weeks after application
Method in brief: as §3

[14] = tested on: blackgrass; assay: Test Example 5: herbicidal effect by foliage application, plastic box (Table 20, symbol J); format: in vivo, blackgrass (Alopecurus myosuroides); conditions: foliage application, 320 g/ha, 3 weeks after application
Method in brief: as §3

[15] = tested on: Italian ryegrass; assay: Test Example 5: herbicidal effect by foliage application, plastic box (Table 20, symbol K); format: in vivo, Italian ryegrass (Lolium multiflorum); conditions: foliage application, 320 g/ha, 3 weeks after application
Method in brief: as §3

[16] = tested on: windgrass; assay: Test Example 5: herbicidal effect by foliage application, plastic box (Table 20, symbol L); format: in vivo, windgrass (Apera spica-venti); conditions: foliage application, 320 g/ha, 3 weeks after application
Method in brief: as §3

[17] = tested on: velvetleaf; assay: Test Example 5: herbicidal effect by foliage application, plastic box (Table 20, symbol M); format: in vivo, velvetleaf (Abutilon theophrasti); conditions: foliage application, 320 g/ha, 3 weeks after application
Method in brief: as §3

[18] = tested on: lambsquarters; assay: Test Example 5: herbicidal effect by foliage application, plastic box (Table 20, symbol O); format: in vivo, lambsquarters (Chenopodium album); conditions: foliage application, 320 g/ha, 3 weeks after application
Method in brief: as §3

[19] = tested on: persian speedwell; assay: Test Example 5: herbicidal effect by foliage application, plastic box (Table 20, symbol R); format: in vivo, Persian speedwell (Veronica persica); conditions: foliage application, 320 g/ha, 3 weeks after application
Method in brief: as §3

For COc1nn(C)c(=O)c(-c2c(-c3cc4ccccc4s3)sc3ccccc23)c1O [1-196], the “herbicidal effect on H (barnyard grass), rating 0-5” value [1] was 3 (Herbicidal rate of 40% or more and less than 70%), the “herbicidal effect on D (Chinese sprangletop), rating 0-5” value [2] was 0 (Herbicidal rate of 5% or less (almost no effect)) and the “herbicidal effect on E (rice flat sedge), rating 0-5” value [3] was 5 (Herbicidal rate of 90% or more (almost completely withered)). The “I: wild oat, herbicidal effect rating” value [4] was 0 (Herbicidal rate of 5% or less (almost no effect)), the “J: blackgrass, herbicidal effect rating” value [5] was 0 (Herbicidal rate of 5% or less (almost no effect)) and the “K: Italian ryegrass, herbicidal effect rating” value [6] was 4 (Herbicidal rate of 70% or more and less than 90%). The “L: windgrass, herbicidal effect rating” value [7] was 0 (Herbicidal rate of 5% or less (almost no effect)), the “P: chickweed, herbicidal effect rating” value [8] was 5 (Herbicidal rate of 90% or more (almost completely withered)) and the “R: persian speedwell, herbicidal effect rating” value [9] was 5 (Herbicidal rate of 90% or more (almost completely withered)). The “effect on southern crabgrass (F)” value [10] was 0 (Herbicidal rate of 5% or less (almost no effect)), the “effect on green foxtail (G)” value [11] was 0 (Herbicidal rate of 5% or less (almost no effect)) and the “effect on barnyard grass (H)” value [12] was 0 (Herbicidal rate of 5% or less (almost no effect)). The “effect on wild oat (I)” value [13] was 0 (Herbicidal rate of 5% or less (almost no effect)), the “effect on blackgrass (J)” value [14] was 0 (Herbicidal rate of 5% or less (almost no effect)) and the “effect on Italian ryegrass (K)” value [15] was 3 (Herbicidal rate of 40% or more and less than 70%). For the same compound, the “effect on windgrass (L)” value [16] was 0 (Herbicidal rate of 5% or less (almost no effect)), the “effect on velvetleaf (M)” value [17] was 3 (Herbicidal rate of 40% or more and less than 70%) and the “effect on lambsquarters (O)” value [18] was 5 (Herbicidal rate of 90% or more (almost completely withered)). For the same compound, the “effect on persian speedwell (R)” value [19] was 5 (Herbicidal rate of 90% or more (almost completely withered)).
